Data published in PMC5201331, “Subchronic Toxicities of HZ1006, a Hydroxamate-Based Histone Deacetylase Inhibitor, in Beagle Dogs and Sprague-Dawley Rats” (International Journal of Environmental Research and Public …, 2016).

What was measured:
Beagle dogs = test: Subchronic toxicity test in Beagle dogs: histopathology; assay type: in vivo; details: after 28 days
Procedure: (§1) HZ1006 was administered orally to dogs (four/sex/group) at doses of 80, 40, 20, 5 and 0 (control) mg/kg/day, and the dosage volume was 2 mL/kg. The dogs received test doses with the exact amounts on a weekly basis based on current body weights. […] The other dogs in the above groups were dissected on the planned days. For the other groups, half of the dogs were anatomized on d28 and the remaining half on d42.
After euthanasia, the following organs or tissues were isolated from the dogs and rats: skin, abnormal lesions, spleen, mammary glands, jejunum, pancreas, ileum, duodenum, stomach, colon, cecum, lymph nodes, mesenteric salivary glands, liver, submandibular lymph nodes, thymus, sternum, lungs, heart, esophagus, trachea, tongue, thyroid with parathyroid gland, sciatic nerve, aorta, femurs, skeletal muscle, pituitary gland, brain, kidneys, eyes, urinary bladder, adrenal glands, uterus, ovaries, testes, epididymis and prostate. The weights of the animal organs, such as the liver, spleen, heart, thymus, brain, lungs, adrenal glands, kidneys, uterus, ovaries, epididymis and testes, were tested using an electronic balance. The organs or tissues were fixed using 10% neutral buffered formalin and were then gradient dehydrated, embedded, sectioned, and stained with routine hematoxylin-eosin prior to histopathological observations.

[1] = Toxicokinetics in Beagle dogs; assay type: in vivo; details: for accumulation coefficient R: after 28 days compared with d1; for Tmax / Cmax / half-life / AUC(0-inf): both sexes, Beagle, dog
Procedure: as §1
The dogs’ blood samples were obtained on the 1st day, the 14th day and the last day (d28) of dosage for plasma HZ1006 content analyses at 0 (1st day only), 1/6, 0.5, 1, 2, 4, 8, 12 and 24 h after dosing, and the blood samples of the rats were acquired on the 1st day and 28th day at the same time as those of the dogs, which were handled and analyzed according to the procedure reported by Zhang et al..

[2] = plasma, po, 5 mg/kg/day, 5 mg/kg/day oral, 14 days
[3] = plasma, po, 5 mg/kg/day, 5 mg/kg/day oral, 28 days
[4] = plasma, po, 5 mg/kg/day, 5 mg/kg/day oral, single
[5] = plasma, po, 20 mg/kg/day, 20 mg/kg/day oral, 14 days
[6] = plasma, po, 20 mg/kg/day, 20 mg/kg/day oral, 28 days
[7] = plasma, po, 20 mg/kg/day, 20 mg/kg/day oral, single
[8] = plasma, po, 40 mg/kg/day, 40 mg/kg/day oral, 14 days
[9] = plasma, po, 40 mg/kg/day, 40 mg/kg/day oral, 28 days
[10] = plasma, po, 40 mg/kg/day, 40 mg/kg/day oral, single
[11] = plasma, po, 80 mg/kg/day, 80 mg/kg/day oral, 14 days
[12] = plasma, po, 80 mg/kg/day, 80 mg/kg/day oral, 28 days
[13] = plasma, po, 80 mg/kg/day, 80 mg/kg/day oral, single

Compound: CCCCCCCNc1cc(/C=C/C(=O)NO)ccc1OCCN(CC)CC [HZ1006]
- Bone marrow of sternum: decrease in hematopoietic cell numbers (incidence/number examined) (Beagle dogs; 5 mg/kg/day oral): 0/4
- Epididymis: lack of mature sperm and secretions in the epididymal lumen as well as decrease of epididymal lumen size (incidence/number examined) (Beagle dogs; 5 mg/kg/day oral): 0/2
- Lung: large confluent bronchopneumonia (incidence/number examined) (Beagle dogs; 5 mg/kg/day oral): 0/4
- Prostate: reduction in numbers and size, thinner epithelium, narrowing of the glandular cavity of prostatic acini (incidence/number examined) (Beagle dogs; 5 mg/kg/day oral): 0/2
- Testis: Reduction in numbers and types of spermatogenic cells (incidence/number examined) (Beagle dogs; 5 mg/kg/day oral): 0/2
- Epididymis: lack of mature sperm and secretions in the epididymal lumen as well as decrease of epididymal lumen size (incidence/number examined) (Beagle dogs; 20 mg/kg/day oral): 0/2
- Lung: large confluent bronchopneumonia (incidence/number examined) (Beagle dogs; 20 mg/kg/day oral): 0/4
- Prostate: reduction in numbers and size, thinner epithelium, narrowing of the glandular cavity of prostatic acini (incidence/number examined) (Beagle dogs; 20 mg/kg/day oral): 0/2
- Testis: Reduction in numbers and types of spermatogenic cells (incidence/number examined) (Beagle dogs; 20 mg/kg/day oral): 0/2
- Bone marrow of sternum: decrease in hematopoietic cell numbers (incidence/number examined) (Beagle dogs; 40 mg/kg/day oral): 2/4
- Epididymis: lack of mature sperm and secretions in the epididymal lumen as well as decrease of epididymal lumen size (incidence/number examined) (Beagle dogs; 40 mg/kg/day oral): 2/2
- Lung: large confluent bronchopneumonia (incidence/number examined) (Beagle dogs; 40 mg/kg/day oral): 2/4
- Prostate: reduction in numbers and size, thinner epithelium, narrowing of the glandular cavity of prostatic acini (incidence/number examined) (Beagle dogs; 40 mg/kg/day oral): 2/2
- Testis: Reduction in numbers and types of spermatogenic cells (incidence/number examined) (Beagle dogs; 40 mg/kg/day oral): 2/2
- Bone marrow of sternum: decrease in hematopoietic cell numbers (incidence/number examined) (Beagle dogs; 80 mg/kg/day oral): 3/4
- Epididymis: lack of mature sperm and secretions in the epididymal lumen as well as decrease of epididymal lumen size (incidence/number examined) (Beagle dogs; 80 mg/kg/day oral): 2/2
- Lung: large confluent bronchopneumonia (incidence/number examined) (Beagle dogs; 80 mg/kg/day oral): 2/4
- Prostate: reduction in numbers and size, thinner epithelium, narrowing of the glandular cavity of prostatic acini (incidence/number examined) (Beagle dogs; 80 mg/kg/day oral): 2/2
- Testis: Reduction in numbers and types of spermatogenic cells (incidence/number examined) (Beagle dogs; 80 mg/kg/day oral): 2/2
- accumulation coefficient R ([1]; 5 mg/kg/day oral): 1.3 ± 1.2
- accumulation coefficient R ([1]; 80 mg/kg/day oral): 1.2 ± 0.9
- Tmax ([1]; in vivo, 20 mg/kg/day oral, 28 days): 3.17 ± 1.33 h
- Cmax ([1]; in vivo, 40 mg/kg/day oral, single): 456 ± 376 ng/mL
- half-life ([1]; in vivo, 80 mg/kg/day oral, 28 days): 454 ± 196 min
- AUC(0-inf) [1, 2]: 199 ± 69.6 ng·h/mL
- Cmax [1, 2]: 30.1 ± 14.2 ng/mL
- Tmax [1, 2]: 4.2 ± 2.01 h
- half-life [1, 2]: 285 ± 73.8 min
- AUC(0-inf) [1, 3]: 616 ± 242 ng·h/mL
- Cmax [1, 3]: 65.7 ± 42 ng/mL
- Tmax [1, 3]: 4.33 ± 2.94 h
- half-life [1, 3]: 440 ± 61.2 min
- AUC(0-inf) [1, 4]: 193 ± 64.6 ng·h/mL
- Cmax [1, 4]: 35.6 ± 15.1 ng/mL
- Tmax [1, 4]: 3.67 ± 1.52 h
- half-life [1, 4]: 264 ± 36.6 min
- AUC(0-inf) [1, 5]: 620 ± 249 ng·h/mL
- Cmax [1, 5]: 68.1 ± 22.8 ng/mL
- Tmax [1, 5]: 4 ± 2.19 h
- half-life [1, 5]: 313 ± 31.8 min
- AUC(0-inf) [1, 6]: 389 ± 104 ng·h/mL
- Cmax [1, 6]: 55.2 ± 21.8 ng/mL
- half-life [1, 6]: 321 ± 43.8 min
- AUC(0-inf) [1, 7]: 1190 ± 320 ng·h/mL
- Cmax [1, 7]: 139 ± 73.4 ng/mL
- Tmax [1, 7]: 3.5 ± 2.51 h
- half-life [1, 7]: 332 ± 91.8 min
- AUC(0-inf) [1, 8]: 1020 ± 977 ng·h/mL
- Cmax [1, 8]: 199 ± 175 ng/mL
- Tmax [1, 8]: 1.9 ± 1.34 h
- half-life [1, 8]: 440 ± 229 min
- AUC(0-inf) [1, 9]: 928 ± 298 ng·h/mL
- Cmax [1, 9]: 162 ± 102 ng/mL
- Tmax [1, 9]: 2.2 ± 1.1 h
- half-life [1, 9]: 305 ± 62.4 min
- AUC(0-inf) [1, 10]: 2500 ± 1490 ng·h/mL
- Tmax [1, 10]: 2.7 ± 2.7 h
- half-life [1, 10]: 416 ± 182 min
- AUC(0-inf) [1, 11]: 1550 ± 758 ng·h/mL
- Cmax [1, 11]: 174 ± 123 ng/mL
- Tmax [1, 11]: 4.43 ± 3.53 h
- half-life [1, 11]: 434 ± 207 min
- AUC(0-inf) [1, 12]: 1820 ± 570 ng·h/mL
- Cmax [1, 12]: 180 ± 83.4 ng/mL
- Tmax [1, 12]: 4.6 ± 3.29 h
- AUC(0-inf) [1, 13]: 3870 ± 2630 ng·h/mL
- Cmax [1, 13]: 365 ± 257 ng/mL
- Tmax [1, 13]: 3.5 ± 2.51 h
- half-life [1, 13]: 404 ± 132 min
